Reference: the supplement of paper PMC10307832

What was measured:
Assay in all cases: relative viability (nuclei count vs DMSO), 5 days (fraction); higher = more cells survive
[1] = compound: CC(C)(C)c1cc(NC(=O)Nc2ccc(-c3cn4c(n3)sc3cc(OCCN5CCOCC5)ccc34)cc2)no1 [Quizartinib] + Cc1nc(NC(=O)N2CCC[C@H]2C(N)=O)sc1-c1ccnc(C(C)(C)C(F)(F)F)c1 [Alpelisib] (partner 2 µM)
Summary of the method: (§1)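 Medians of duplicate plates are given as relative viability. That measure is the nuclei count in treated wells divided by the count in vehicle wells. Counts were taken on 4× images of lung cancer cell lines in 1536-well plates, 5 days after pin-tool dosing the day after seeding with one drug alone or a fixed anchor-drug dose plus five library-drug doses (not always all listed) in √10 steps.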

[2] = compound: COCC[n+]1c2c(n(Cc3cnccn3)c1C)C(=O)c1ccccc1C2=O [YM155] + CC(C)C[C@H](NC(=O)[C@H](Cc1ccccc1)NC(=O)c1cnccn1)B(O)O [Bortezomib] (partner 0.002 µM)
Summary of the method: as §1

[3] = compound: COCC[n+]1c2c(n(Cc3cnccn3)c1C)C(=O)c1ccccc1C2=O [YM155]
Summary of the method: (§2)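 Only plates meeting two conditions passed: control CV below 25% and at least one doubling. Lung cancer cell lines, kept overnight at 37 °C in 1536-well plates, were pinned with five library-drug doses (not always all listed) √10 apart on vehicle-anchored plates and grown 5 days without medium change. A one-step fix, permeabilisation and Hoechst stain preceded 4× imaging and MetaXpress nuclear counting. Viability equals treated-well nuclei divided by vehicle-well nuclei, as the median over plates.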

[4] = compound: CC(C)(C)c1cc(NC(=O)Nc2ccc(-c3cn4c(n3)sc3cc(OCCN5CCOCC5)ccc34)cc2)no1 [Quizartinib]
Summary of the method: as §2

NCI-H1666
relative viability ([1]; first compound 0.001 µM): 0.793 | relative viability ([1]; first compound 0.003162 µM): 0.956 | relative viability ([1]; first compound 0.01 µM): 1.03 | relative viability ([1]; first compound 0.03162 µM): 0.742 | relative viability ([1]; first compound 0.1 µM): 1.02 | relative viability ([2]; first compound 0.002 µM): 0.644 | relative viability ([2]; first compound 0.02 µM): 0.815 | relative viability ([2]; first compound 0.06325 µM): 0.718 | relative viability ([3]; 0.002 µM): 0.932 | relative viability ([3]; 0.006325 µM): 1 | relative viability ([3]; 0.02 µM): 1.02 | relative viability ([3]; 0.06325 µM): 0.918 | relative viability ([4]; 0.001 µM): 0.86 | relative viability ([4]; 0.003162 µM): 1.01 | relative viability ([4]; 0.01 µM): 1 | relative viability ([4]; 0.03162 µM): 0.845 | relative viability ([4]; 0.1 µM): 1.02

NCI-H1703
relative viability ([1]; first compound 0.001 µM): 0.34 | relative viability ([1]; first compound 0.003162 µM): 0.196 | relative viability ([1]; first compound 0.01 µM): 0.209 | relative viability ([1]; first compound 0.03162 µM): 0.182 | relative viability ([1]; first compound 0.1 µM): 0.22 | relative viability ([2]; first compound 0.002 µM): 0.283 | relative viability ([2]; first compound 0.006325 µM): 0.323 | relative viability ([2]; first compound 0.02 µM): 0.322 | relative viability ([2]; first compound 0.06325 µM): 0.198 | relative viability ([3]; 0.002 µM): 0.808 | relative viability ([3]; 0.006325 µM): 0.807 | relative viability ([3]; 0.02 µM): 0.767 | relative viability ([3]; 0.06325 µM): 0.444 | relative viability ([4]; 0.001 µM): 0.847 | relative viability ([4]; 0.003162 µM): 0.527 | relative viability ([4]; 0.01 µM): 0.256 | relative viability ([4]; 0.03162 µM): 0.264 | relative viability ([4]; 0.1 µM): 0.316

NCI-H1734
relative viability ([1]; first compound 0.001 µM): 0.561 | relative viability ([1]; first compound 0.003162 µM): 0.716 | relative viability ([1]; first compound 0.01 µM): 0.642 | relative viability ([1]; first compound 0.03162 µM): 0.699 | relative viability ([1]; first compound 0.1 µM): 0.665 | relative viability ([2]; first compound 0.002 µM): 1 | relative viability ([2]; first compound 0.006325 µM): 0.818 | relative viability ([2]; first compound 0.02 µM): 1.04 | relative viability ([2]; first compound 0.06325 µM): 0.99 | relative viability ([3]; 0.002 µM): 0.995 | relative viability ([3]; 0.006325 µM): 0.956 | relative viability ([3]; 0.02 µM): 1.01 | relative viability ([3]; 0.06325 µM): 1.1 | relative viability ([4]; 0.001 µM): 0.924 | relative viability ([4]; 0.003162 µM): 0.959 | relative viability ([4]; 0.01 µM): 1.03 | relative viability ([4]; 0.03162 µM): 0.943 | relative viability ([4]; 0.1 µM): 1.01

NCI-H1755
relative viability ([1]; first compound 0.001 µM): 0.798 | relative viability ([1]; first compound 0.003162 µM): 0.851 | relative viability ([1]; first compound 0.01 µM): 0.975 | relative viability ([1]; first compound 0.03162 µM): 0.917 | relative viability ([1]; first compound 0.1 µM): 0.923 | relative viability ([2]; first compound 0.002 µM): 0.941 | relative viability ([2]; first compound 0.006325 µM): 0.894 | relative viability ([2]; first compound 0.02 µM): 1.03 | relative viability ([2]; first compound 0.06325 µM): 0.923 | relative viability ([3]; 0.002 µM): 0.973 | relative viability ([3]; 0.006325 µM): 0.996 | relative viability ([3]; 0.02 µM): 0.968 | relative viability ([3]; 0.06325 µM): 1.03 | relative viability ([4]; 0.001 µM): 0.866 | relative viability ([4]; 0.003162 µM): 0.958 | relative viability ([4]; 0.01 µM): 0.996 | relative viability ([4]; 0.03162 µM): 1.07 | relative viability ([4]; 0.1 µM): 0.99

NCI-H1792
relative viability ([1]; first compound 0.001 µM): 0.799 | relative viability ([1]; first compound 0.003162 µM): 0.667 | relative viability ([1]; first compound 0.01 µM): 0.711 | relative viability ([1]; first compound 0.03162 µM): 0.499 | relative viability ([1]; first compound 0.1 µM): 0.703 | relative viability ([2]; first compound 0.002 µM): 0.816 | relative viability ([2]; first compound 0.006325 µM): 0.97 | relative viability ([2]; first compound 0.02 µM): 0.943 | relative viability ([2]; first compound 0.06325 µM): 1 | relative viability ([3]; 0.002 µM): 0.754 | relative viability ([3]; 0.006325 µM): 0.884 | relative viability ([3]; 0.02 µM): 0.983 | relative viability ([3]; 0.06325 µM): 0.957 | relative viability ([4]; 0.001 µM): 0.712 | relative viability ([4]; 0.003162 µM): 0.987 | relative viability ([4]; 0.01 µM): 0.811 | relative viability ([4]; 0.03162 µM): 0.853 | relative viability ([4]; 0.1 µM): 0.924

NCI-H1915
relative viability ([1]; first compound 0.001 µM): 1.03 | relative viability ([1]; first compound 0.003162 µM): 1.01 | relative viability ([1]; first compound 0.01 µM): 1.06 | relative viability ([1]; first compound 0.03162 µM): 1.11 | relative viability ([1]; first compound 0.1 µM): 1.16 | relative viability ([2]; first compound 0.002 µM): 0.945 | relative viability ([2]; first compound 0.006325 µM): 0.972 | relative viability ([2]; first compound 0.02 µM): 0.957 | relative viability ([2]; first compound 0.06325 µM): 0.918 | relative viability ([3]; 0.002 µM): 0.888 | relative viability ([3]; 0.006325 µM): 0.994 | relative viability ([3]; 0.02 µM): 0.997 | relative viability ([3]; 0.06325 µM): 0.817 | relative viability ([4]; 0.001 µM): 0.877 | relative viability ([4]; 0.003162 µM): 0.925 | relative viability ([4]; 0.01 µM): 0.865 | relative viability ([4]; 0.03162 µM): 0.998 | relative viability ([4]; 0.1 µM): 1.02

NCI-H1975
relative viability ([1]; first compound 0.001 µM): 0.638 | relative viability ([1]; first compound 0.003162 µM): 0.521 | relative viability ([1]; first compound 0.01 µM): 0.655 | relative viability ([1]; first compound 0.03162 µM): 0.545 | relative viability ([1]; first compound 0.1 µM): 0.585 | relative viability ([2]; first compound 0.002 µM): 0.335 | relative viability ([2]; first compound 0.006325 µM): 0.43 | relative viability ([2]; first compound 0.02 µM): 0.444 | relative viability ([2]; first compound 0.06325 µM): 0.272 | relative viability ([3]; 0.002 µM): 0.826 | relative viability ([3]; 0.006325 µM): 0.883 | relative viability ([3]; 0.02 µM): 0.921 | relative viability ([3]; 0.06325 µM): 0.679 | relative viability ([4]; 0.001 µM): 0.853 | relative viability ([4]; 0.003162 µM): 0.891 | relative viability ([4]; 0.01 µM): 0.966 | relative viability ([4]; 0.03162 µM): 1.03 | relative viability ([4]; 0.1 µM): 1.01

NCI-H1993
relative viability ([1]; first compound 0.001 µM): 0.668 | relative viability ([1]; first compound 0.003162 µM): 0.638 | relative viability ([1]; first compound 0.01 µM): 0.614 | relative viability ([1]; first compound 0.03162 µM): 0.65 | relative viability ([1]; first compound 0.1 µM): 0.642 | relative viability ([2]; first compound 0.002 µM): 1.12 | relative viability ([2]; first compound 0.006325 µM): 1.05 | relative viability ([2]; first compound 0.02 µM): 0.922 | relative viability ([2]; first compound 0.06325 µM): 0.69 | relative viability ([3]; 0.002 µM): 0.904 | relative viability ([3]; 0.006325 µM): 0.927 | relative viability ([3]; 0.02 µM): 0.771 | relative viability ([3]; 0.06325 µM): 0.577 | relative viability ([4]; 0.001 µM): 0.948 | relative viability ([4]; 0.003162 µM): 1 | relative viability ([4]; 0.01 µM): 1.02 | relative viability ([4]; 0.03162 µM): 1.04 | relative viability ([4]; 0.1 µM): 1.11
